Data reported in patent US20240229101A1, “METHOD FOR DETECTING INTRACELLULAR ACTIVITY OF CYP ENZYMES” (NATIONAL INSTITUTE OF ADVANCED INDUSTRIAL SCIENCE AND …, priority 2021, published 2024).
One block for each molecule: values may come before it.

Columns and labels:
[1] = test system: CYP enzyme group; test: Raman observation of HepaRG hepatocytes, signal of oxidized CYP enzyme group (1370, 1636 cm^-1); type: cell-based, human
Description: (§1) A Raman image of the cell group cultured using the above-mentioned method (1) or (2) was constructed by quantitatively measuring the Raman signal using Raman spectroscopy. Here, the “observation” in the present specification includes both detecting a Raman scattering signal of a cell group and acquiring and observing a Raman image of a cell group. […] Details are explained in each Example.
The culture medium of the cultured cell group was removed, and the cell group was washed twice with PBS. An observation solution (Live Cell Imaging Solution (A14291DJ, Thermo Fisher Scientific)) was added to the washed cell group. The thus-treated cell group was subjected to Raman observation using the Raman microscope (Non Patent Literature 3) described using FIG. 1 (FIG. 6, FIG. 9 to 11, FIG. 13 to FIG. 21, FIG. 23 to FIG. 26).
A 40× water immersion objective lens (CFI Apochromat Lambda S 40XC WI) equipped in a Raman microscope was used to excite the Raman scattered light of the cell group and to detect the Raman scattering signal. The excitation light of the Raman scattered light of the cell group was irradiated by condensing a laser beam with a wavelength of 532 nm into a straight line with a predetermined length (hereinafter referred to as a line) using the water immersion objective lens.
(§2) The flow of detection of Raman scattered light of a cell group that was generated by excitation with excitation light is explained. […] The Raman scattering signal imaged on the slit is then separated by diffraction grating inside the spectroscope and detected by a cooling-type CCD image sensor (PIXIS 400B, Princeton Instruments) used as a photodetector. Raman scattering signals scattered from everywhere on the condensed line can be measured simultaneously and independently by different pixels on the CCD. […] Respective Raman signals were simultaneously detected in an about 133.3 μm region on the direction of the condensed line.

[2] = test system: reduced heme b, mainly reduced cytochrome b5; test: Raman observation of HepaRG hepatocytes, reduced heme b signal (675 cm^-1); type: cell-based, human; conditions: HepaRG induced with 4 μM Rifampicin, inhibitor 10 μM for 5 min (FIG. 24)
Description: as §1
The culture medium of the cultured cell group was removed, and the cell group was washed twice with PBS. An observation solution (Live Cell Imaging Solution (A14291DJ, Thermo Fisher Scientific)) was added to the washed cell group. […]
as §2

[3] = biological target: T1, CYP3A4 (Homo sapiens, UniProt P08684); test: CYP3A4 activity in cell group by luminescence method (P450-Glo, Luciferin-IPA); type: cell-based; conditions: HepaRG pre-induced with 2% DMSO, 2 ng/ml, 48 hr, vs control (FIG. 18)
T1 construct: endogenous in cells; host or cells: HepaRG cells (human liver tumor-derived; BIOPREDIC International)
Experimental: In order to confirm the enzyme activity of CYP3A4, which is particularly expressed in liver cells among the CYP enzymes in the cell group subjected to Raman observation, a test using a luminescence method (hereinafter a luminescence test) was performed in parallel with the Raman observation. The cell is group used in the luminescence test was a cell group separated from the cultured cells used in the below-mentioned Raman observation in (5). That is, the cell group cultured under the same conditions and at the same time as the cultured cells used in Raman observation was used. CYP luminescence test was performed using a commercially available luminescence assay kit (P450-Glo-CYP3A4-Assay-and-Screening-System) according to the provided protocol.
When the Luciferin-IPA substrate is converted to luciferin by CYP3A4, it becomes a substrate for luciferase, producing luminescence proportional to the activity of CYP3A4. […] Luciferase (50 μl) was added dropwise to the dispensed substrate-containing medium, and luminescence was caused using the luciferin-luciferase reaction. Luminescence was detected using a micro-plate reader (Synergy HTX, BioTek). The CYP3A4 activity detected by the present luminescence method is shown in FIG. 7, FIG. 14, FIG. 16, FIG. 18, FIG. 20, and FIG. 22.

[4] = test system: CYP3A4, CYP1A2, CYP2B6, and CYP2C9; test: Induction of gene expression of CYP enzymes by inducing agents; type: cell-based, human; conditions: confirmed by the inventors

T1 sequence (P08684 whole entry): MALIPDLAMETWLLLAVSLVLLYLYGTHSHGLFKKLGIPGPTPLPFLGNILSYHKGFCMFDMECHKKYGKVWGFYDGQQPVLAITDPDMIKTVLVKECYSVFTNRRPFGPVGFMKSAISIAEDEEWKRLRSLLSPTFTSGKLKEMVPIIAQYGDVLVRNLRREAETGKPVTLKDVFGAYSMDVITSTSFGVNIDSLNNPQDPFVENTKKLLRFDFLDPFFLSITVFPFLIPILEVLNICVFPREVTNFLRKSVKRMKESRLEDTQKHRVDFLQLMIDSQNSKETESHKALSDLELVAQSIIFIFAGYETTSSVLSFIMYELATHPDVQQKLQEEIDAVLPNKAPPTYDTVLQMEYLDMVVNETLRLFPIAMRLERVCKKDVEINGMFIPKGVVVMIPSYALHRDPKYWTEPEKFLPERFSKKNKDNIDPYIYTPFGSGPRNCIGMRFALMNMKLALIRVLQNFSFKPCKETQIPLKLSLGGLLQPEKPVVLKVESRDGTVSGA

- Raman signal at a wavenumber of 1636 cm^-1 after inhibition ([1]; HepaRG induced with 4 μM Rifampicin, inhibitor 10 μM for 5 min (FIG. 23)): reduces
- median value of per-cell Raman signal at 1636 cm^-1 after inhibition ([1]; HepaRG induced with 4 μM Rifampicin, inhibitor 10 μM for 5 min, vs not administered, statistically significant (FIG. 23)): decreased
Molecule: CC[C@]1(C)C[C@@H](OC(=O)CSc2nnc(N)[nH]2)[C@]2(C)[C@H](C)CC[C@]3(CCC(=O)[C@H]32)[C@@H](C)[C@@H]1O [Azamulin]
- Raman signal with a wavenumber of 675 cm^-1 after inhibition [2]: did not increase

Molecule: Interleukin-6 [IL-6]
- activity of CYP3A4 (luminescence test) after suppression [3]: decreases
- CYP activity detected using Raman signals (1636 cm^-1) after suppression ([1]; HepaRG pre-induced with 2% DMSO, 2 ng/ml, 48 hr, vs control (FIGS. 18, 19)): downregulation

- gene expression of at least one of CYP3A4, CYP1A2, CYP2B6, CYP2C9 [4]: induce gene expression
Molecule: NC(=O)N1c2ccccc2C=Cc2ccccc21 [Carbamazepine]

- gene expression of at least one of CYP3A4, CYP1A2, CYP2B6, CYP2C9 [4]: induce gene expression
Molecule: O=C1NC(=O)C(c2ccccc2)(c2ccccc2)N1 [Phenytoin]
